The data set in a line: Ex-vivo plasma stability. In kind it is in vitro ADME, mouse or rat. Conditions: for remaining at 1 h / remaining at 2 h: fresh plasma 37° C., 1 μM; for remaining at 1 h: 60 min, read-out: Percent remaining 60 min; for remaining at 2 h: 120 min, read-out: Percent remaining 120 min; for stability toward plasma proteolytic cleavage: versus THR-123, rat plasma (FIGS. 3 and 4). The method, then:
Test article is added to fresh mouse or rat plasma at a final in-vial concentration of 1 μM. The peptide is incubated in a water bath at 37° C. over a time course that included the following points (in minutes): 0, 15, 30, 60, 120, 240, and 1440. After the incubation time is completed, a 50 μL aliquot of plasma is removed and proteins are precipitated using a solution containing internal standard (THR-123 at 150 ng/mL) in methanol with 0.5% acetic acid (v/v). The samples are centrifuged at 13,000 RPM for 5 minutes, and a 100 μL aliquot of supernatant is removed and transferred to a 96-well plate containing 200 μL of reconstitution solution (Water/MeOH/Acetic Acid/TFA, 60/40/0.2/0.05, v/v/v/v). A calibration curve and quality control (QC) samples are prepared in parallel in the same manner as the incubation samples. The calibration range for this assay is from 0.02 to 2.0 μM in rat or mouse plasma. The extracted calibrants, QC, and incubation samples are injected onto an AB SCIEX API 2000 LC-MS/MS system. Chromatographic separation is performed using a reversed-phase C18 HPLC column (Ace-3 C18, 30×2.1 mm, 3 μm). The solvent system consists of Milli-Q water, acetonitrile and formic acid. Analyte and internal standard are detected using the multiple reaction monitoring (MRM) scan mode. Calibration curves are generated by using a weighted (1/concentration) quadratic regression analysis of the peak area ratios (analyte/internal standard) versus the nominal concentration of the calibration standards. The concentration of the analyte in the incubation samples is determined by back-calculating the peak area ratios obtained using the quadratic regression.

The record followed here is US20160137714A1 (Thrasos Innovation, Inc., priority 2014, published 2016).

Each structure is given as a SMILES string. Positions of bridges follow the written chain, without caps; N, C: chain ends. Non-standard residues stand in square brackets, D forms with d. Residues, ends and D or L forms follow the SMILES beside them. NMeR = CN[C@@H](CCCNC(=N)N)C(=O)O

In the case of `CC(C)C[C@@H]1NC(=O)[C@H](C(C)C)NC(=O)[C@H](CC(N)=O)NC(=O)[C@H](CO)NC(=O)[C@H](CO)NC(=O)[C@H](CC(=O)O)NC(=O)[C@H](CC(=O)O)NC(=O)[C@H](Cc2ccccc2)NC(=O)[C@H](Cc2ccc(O)cc2)NC(=O)[C@@H](N)CSSC[C@@H](C(=O)N[C@@H](CCCCN)C(=O)N[C@@H](CCCCN)C(=O)N[C@@H](Cc2ccc(O)cc2)C(=O)N[C@H](CCCNC(=N)N)C(=O)N[C@@H](CO)C(=O)O)NC1=O` [GPR-389, Cys-Tyr-Phe-Asp-Asp-Ser-Ser-Asn-Val-Leu-Cys-Lys-Lys-Tyr-D-arg-Ser] (H-CYFDDSSNVLCKKY[dR]S-OH; disulfide 1-11), the fraction remaining at 1 h stood at 58.5%, the fraction remaining at 2 h came to 46.1% and the “stability toward plasma proteolytic cleavage” value is “enhanced”.

With `CC(C)C[C@@H]1NC(=O)[C@H](C(C)C)NC(=O)[C@H](CC(N)=O)NC(=O)[C@H](CO)NC(=O)[C@H](CO)NC(=O)[C@H](CC(=O)O)NC(=O)[C@H](CC(=O)O)NC(=O)[C@H](Cc2ccccc2)NC(=O)[C@H](Cc2ccc(O)cc2)NC(=O)[C@@H](N)CSSC[C@@H](C(=O)N[C@@H](CCCCN)C(=O)N[C@@H](CCCCN)C(=O)N[C@@H](Cc2ccc(O)cc2)C(=O)N(C)[C@@H](CCCNC(=N)N)C(=O)N[C@@H](CO)C(=O)O)NC1=O` [GPR-396, Cys-Tyr-Phe-Asp-Asp-Ser-Ser-Asn-Val-Leu-Cys-Lys-Lys-Tyr-(Na-Me)Arg-Ser] (H-CYFDDSSNVLCKKY[NMeR]S-OH; disulfide 1-11), the fraction remaining at 1 h is 91%, the amount remaining at 2 h is 82.4% and the “stability toward plasma proteolytic cleavage” value is “enhanced”.

Consider `CC(C)C[C@@H]1NC(=O)[C@H](C(C)C)NC(=O)[C@H](CO)NC(=O)[C@H](CO)NC(=O)[C@H](CO)NC(=O)[C@H](CC(N)=O)NC(=O)[C@H](CC(=O)O)NC(=O)[C@H](Cc2ccc(O)cc2)NC(=O)[C@H](Cc2ccc(O)cc2)NC(=O)[C@@H](N)CSSC[C@@H](C(=O)N[C@@H](CCCCN)C(=O)N[C@@H](CCCNC(=N)N)C(=O)N[C@@H](Cc2ccc(O)cc2)C(=O)N[C@@H](CCCNC(=N)N)C(=O)N[C@@H](CO)C(=O)O)NC1=O` [GPR-259, Cys-Tyr-Tyr-Asp-Asn-Ser-Ser-Ser-Val-Leu-Cys-Lys-Arg-Tyr-Arg-Ser] (H-CYYDNSSSVLCKRYRS-OH; disulfide 1-11), for which the fraction remaining at 1 h is 4% and the share remaining at 2 h was found to be 2.5%.

On to `CC(C)C[C@@H]1NC(=O)[C@H](C(C)C)NC(=O)[C@H](CC(N)=O)NC(=O)[C@H](CO)NC(=O)[C@H](CO)NC(=O)[C@H](CC(=O)O)NC(=O)[C@H](CC(=O)O)NC(=O)[C@H](Cc2ccccc2)NC(=O)[C@H](Cc2ccc(O)cc2)NC(=O)[C@@H](N)CSSC[C@@H](C(=O)N[C@@H](CCCCN)C(=O)N[C@@H](CCCNC(=N)N)C(=O)N[C@H](Cc2ccc(O)cc2)C(=O)N[C@@H](CCCNC(=N)N)C(=O)N[C@@H](CO)C(=O)O)NC1=O` [GPR-397, Cys-Tyr-Phe-Asp-Asp-Ser-Ser-Asn-Val-Leu-Cys-Lys-Arg-D-tyr-Arg-Ser] (H-CYFDDSSNVLCKR[dY]RS-OH; disulfide 1-11), for which the share remaining at 1 h stood at 92% and the share remaining at 2 h worked out at 89.3%.

Consider `CC(C)C[C@@H]1NC(=O)[C@H](C(C)C)NC(=O)[C@H](CO)NC(=O)[C@H](CO)NC(=O)[C@H](CO)NC(=O)[C@H](CC(N)=O)NC(=O)[C@H](CC(=O)O)NC(=O)[C@H](Cc2ccc(O)cc2)NC(=O)[C@H](Cc2ccc(O)cc2)NC(=O)[C@@H](N)CSSC[C@@H](C(=O)N[C@@H](CCCCN)C(=O)N[C@@H](CCCNC(=N)N)C(=O)N[C@@H](Cc2ccc(O)cc2)C(=O)N(C)[C@@H](CCCNC(=N)N)C(=O)N[C@@H](CO)C(=O)O)NC1=O` [GPR-398, Cys-Tyr-Tyr-Asp-Asn-Ser-Ser-Ser-Val-Leu-Cys-Lys-Arg-Tyr-(Nα-Me)Arg-Ser] (H-CYYDNSSSVLCKRY[NMeR]S-OH; disulfide 1-11), for which the fraction remaining at 1 h came out at 79.2% and the share remaining at 2 h was 68.1%.

With `CC(C)C[C@@H]1NC(=O)[C@H](C(C)C)NC(=O)[C@H](CO)NC(=O)[C@H](CO)NC(=O)[C@H](CO)NC(=O)[C@H](CC(N)=O)NC(=O)[C@H](CC(=O)O)NC(=O)[C@H](Cc2ccc(O)cc2)NC(=O)[C@H](Cc2ccc(O)cc2)NC(=O)[C@@H](N)CSSC[C@@H](C(=O)N[C@@H](CCCCN)C(=O)N[C@@H](CCCCN)C(=O)N[C@H](Cc2ccc(O)cc2)C(=O)N[C@@H](CCCNC(=N)N)C(=O)N[C@@H](CO)C(=O)O)NC1=O` [GPR-296, Cys-Tyr-Tyr-Asp-Asn-Ser-Ser-Ser-Val-Leu-Cys-Lys-Lys-D-tyr-Arg-Ser] (H-CYYDNSSSVLCKK[dY]RS-OH; disulfide 1-11), the fraction remaining at 1 h turned out to be 97.5% and the amount remaining at 2 h was determined as 86.4%.

Consider `CC(C)C[C@@H]1NC(=O)[C@H](C(C)C)NC(=O)[C@H](CC(N)=O)NC(=O)[C@H](CO)NC(=O)[C@H](CO)NC(=O)[C@H](CC(=O)O)NC(=O)[C@H](CC(=O)O)NC(=O)[C@H](Cc2ccccc2)NC(=O)[C@H](Cc2ccc(O)cc2)NC(=O)[C@@H](N)CSSC[C@@H](C(=O)N[C@@H](CCCCN)C(=O)N[C@@H](CCCNC(=N)N)C(=O)N[C@@H](Cc2ccc(O)cc2)C(=O)N[C@@H](CCCNC(=N)N)C(=O)N[C@@H](CO)C(=O)O)NC1=O` [GPR-293, Cys-Tyr-Phe-Asp-Asp-Ser-Ser-Asn-Val-Leu-Cys-Lys-Arg-Tyr-Arg-Ser] (H-CYFDDSSNVLCKRYRS-OH; disulfide 1-11), for which the amount remaining at 1 h amounted to 3.5% and the fraction remaining at 2 h was 1.6%.

`CC(C)C[C@@H]1NC(=O)[C@H](C(C)C)NC(=O)[C@H](CC(N)=O)NC(=O)[C@H](CO)NC(=O)[C@H](CO)NC(=O)[C@H](CC(=O)O)NC(=O)[C@H](CC(=O)O)NC(=O)[C@H](Cc2ccccc2)NC(=O)[C@H](Cc2ccc(O)cc2)NC(=O)[C@@H](N)CSSC[C@@H](C(=O)N[C@@H](CCCCN)C(=O)N[C@H](CCCCN)C(=O)N[C@@H](Cc2ccc(O)cc2)C(=O)N[C@@H](CCCNC(=N)N)C(=O)N[C@@H](CO)C(=O)O)NC1=O` [GPR-388, Cys-Tyr-Phe-Asp-Asp-Ser-Ser-Asn-Val-Leu-Cys-Lys-(D)lys-Tyr-Arg-Ser] (H-CYFDDSSNVLCK[dK]YRS-OH; disulfide 1-11): the share remaining at 1 h worked out at 77.6%, the fraction remaining at 2 h was determined as 64.2% and the “stability toward plasma proteolytic cleavage” value was “enhanced”.

In the case of `CC(C)C[C@@H]1NC(=O)[C@H](C(C)C)NC(=O)[C@H](CO)NC(=O)[C@H](CO)NC(=O)[C@H](CO)NC(=O)[C@H](CC(N)=O)NC(=O)[C@H](CC(=O)O)NC(=O)[C@H](Cc2ccc(O)cc2)NC(=O)[C@H](Cc2ccc(O)cc2)NC(=O)[C@@H](N)CSSC[C@@H](C(=O)N[C@@H](CCCCN)C(=O)N[C@@H](CCCCN)C(=O)N[C@@H](Cc2ccc(O)cc2)C(=O)N[C@@H](CCCNC(=N)N)C(=O)N[C@@H](CO)C(=O)O)NC1=O` [GPR-269, Cys-Tyr-Tyr-Asp-Asn-Ser-Ser-Ser-Val-Leu-Cys-Lys-Lys-Tyr-Arg-Ser] (H-CYYDNSSSVLCKKYRS-OH; disulfide 1-11), the fraction remaining at 1 h came out at 9.9% and the fraction remaining at 2 h came out at 6.8%.

Regarding `CC(C)C[C@@H]1NC(=O)[C@H](C(C)C)NC(=O)[C@H](CO)NC(=O)[C@H](CO)NC(=O)[C@H](CO)NC(=O)[C@H](CC(=O)O)NC(=O)[C@H](CC(=O)O)NC(=O)[C@H](Cc2ccc(O)cc2)NC(=O)[C@H](Cc2ccc(O)cc2)NC(=O)[C@@H](N)CSSC[C@@H](C(=O)N[C@@H](CCCCN)C(=O)N[C@@H](CCCCN)C(=O)N[C@H](Cc2ccc(O)cc2)C(=O)N[C@@H](CCCNC(=N)N)C(=O)N[C@@H](CO)C(=O)O)NC1=O` [GPR-295, Cys-Tyr-Tyr-Asp-Asp-Ser-Ser-Ser-Val-Leu-Cys-Lys-Lys-D-tyr-Arg-Ser] (H-CYYDDSSSVLCKK[dY]RS-OH; disulfide 1-11), the fraction remaining at 1 h came to 92.2% and the fraction remaining at 2 h was determined as 94.7%.

As to `CC(C)C[C@@H]1NC(=O)[C@H](C(C)C)NC(=O)[C@H](CO)NC(=O)[C@H](CO)NC(=O)[C@H](CO)NC(=O)[C@H](CC(=O)O)NC(=O)[C@H](CC(=O)O)NC(=O)[C@H](Cc2ccc(O)cc2)NC(=O)[C@H](Cc2ccc(O)cc2)NC(=O)[C@@H](N)CSSC[C@@H](C(=O)N[C@@H](CCCCN)C(=O)N[C@@H](CCCCN)C(=O)N[C@@H](Cc2ccc(O)cc2)C(=O)N[C@@H](CCCNC(=N)N)C(=O)N[C@@H](CO)C(=O)O)NC1=O` [GPR-267, Cys-Tyr-Tyr-Asp-Asp-Ser-Ser-Ser-Val-Leu-Cys-Lys-Lys-Tyr-Arg-Ser] (H-CYYDDSSSVLCKKYRS-OH; disulfide 1-11), the amount remaining at 1 h worked out at 1.5% and the fraction remaining at 2 h was 0%.

Take `CC(C)C[C@@H]1NC(=O)[C@H](C(C)C)NC(=O)[C@H](CO)NC(=O)[C@H](CO)NC(=O)[C@H](CO)NC(=O)[C@H](CC(N)=O)NC(=O)[C@H](CC(=O)O)NC(=O)[C@H](Cc2ccc(O)cc2)NC(=O)[C@H](Cc2ccc(O)cc2)NC(=O)[C@@H](N)CSSC[C@@H](C(=O)N[C@@H](CCCCN)C(=O)N[C@@H](CCCNC(=N)N)C(=O)N[C@H](Cc2ccc(O)cc2)C(=O)N[C@@H](CCCNC(=N)N)C(=O)N[C@@H](CO)C(=O)O)NC1=O` [GPR-279, Cys-Tyr-Tyr-Asp-Asn-Ser-Ser-Ser-Val-Leu-Cys-Lys-Arg-D-tyr-Arg-Ser] (H-CYYDNSSSVLCKR[dY]RS-OH; disulfide 1-11): the amount remaining at 1 h was 89.1% and the amount remaining at 2 h was 77.8%.
